Laboratory results: publication PMC2440032, “Odorranalectin Is a Small Peptide Lectin with Potential for Drug Delivery and Targeting” (PLoS ONE, 2008)
pKd: −log10 of the molar value. “And” between values parts separate entries of the source, which are not always exact repeats. Identical values can stand only once.

Tests used:
[1] = system: odorranalectin-mediated erythrocytes hemagglutination; assay: Hemagglutination-inhibition test; assay type: cell-based, rabbit; settings: for MIC, minimum concentration to inhibit odorranalectin-mediated erythrocytes hemagglutination: inhibition of four hemagglutination doses of odorranalectin
Description: Intact, pronase-treated, trypsin-treated, and formaldehyde-treated rabbit erythrocytes were prepared. Assays were carried out in U-well microtiter plates (96 wells) as described previously [21]–[23]. The details are provided in the supplementary materials (Materials and Methods S1).
Inhibition was expressed as the minimum concentration of each sugar or glycoprotein required for inhibition of hemagglutination of titer 4 of the lectin.

[2] = target: immobilized odorranalectin (Odorrana grahami, UniProt B3TFE9); assay: SPR, analytes on immobilized odorranalectin; assay type: binding
Description: Real time detection of odorranalectin and its mutants binding to glycoproteins and L-fucose was recorded by using a Biacore 3000 [21]–[24]. The details are provided in the supplementary materials (Materials and Methods S1).
SPR Analysis. Real time detection of odorranalectin and its mutants binding to glycoproteins and L-fucose was recorded by using a Biacore 3000 [21-24]. Odorranalectin was immobilized covalently via their primary amines to carboxyl groups within a dextran layer on the sensor chip CM-5 according to the manufacturer’s specifications. After chip activation with 0.4 M 1-ethyl-3- (3-dimethylaminopropyl) carbodiimide hydrochloride and 10 mM N-hydroxysuccinimide, odorranalectin or its mutants (in 10 mM sodium acetate buffer, pH 4.0) at a concentration of 100 μg/ml was passed through the flow cells at a rate of 5 μl/min. After immobilization, the chip was capped by exposure to 1 M ethanolamine (pH 8.5).
All analyses were performed at a flow rate of 30 μl/min. Before loading of analytes, the chip was equilibrated with 10 mM HEPES-buffered saline containing 3 mM EDTA and 0.005% surfactant P-20, pH 7.4 (HBS-EP). Each analyte at various concentrations in the same buffer was injected over the immobilized ligand for 4 min. After injection of the analyte, HBS-EP was introduced onto the sensor surface to start dissociation, and dissociation data were collected for 5 min. The chip was regenerated by injection of 5μl of 10 mM HCl or NaOH, followed by HBS-EP.
Association and dissociation rate constants (ka and kd) were calculated by using BIA evaluation 4.0 software (Biacore AB, Sweden). The affinity constant (KD) was calculated from the ka and kd. For the calculation of rate constants, samples were appropriately diluted in HBS-EP at various concentrations.

[3] = SPR Biacore 3000, CM-5 chip, HBS-EP pH 7.4, 1:1 binding model

Molecule	MIC, minimum concentration to inhibit odorranalectin-mediated erythrocytes hemagglutination ([1]; sugars) [mM]	further results
OC1COC(O)C(O)C1O (stereo not drawn) [D(+)-xylose]	> 200	
Fetuin: glycoprotein used as analyte and inhibitor		ka [2, 3]: 2890 M⁻¹ s⁻¹; kd [2, 3]: 0.00061 s⁻¹; Inhibition of the hemagglutinating activity of odorranalectin by glycoproteins (in words) [1]: most effective inhibitor; MIC, minimum concentration to inhibit odorranalectin-mediated erythrocytes hemagglutination ([1]; glycoproteins): 15.63 µg/mL and 15.6 µg/mL
OC[C@@H](O)[C@H](O)[C@H](O)[C@@H](O)CO [dulcitol]	> 200	
C[C@H](O)[C@@H](O)[C@@H](O)[C@H](O)C=O [L-fucose, reference compound]		pKd ([2]; SPR Biacore 3000, CM-5 chip, HBS-EP pH 7.4, calculated from ka and kd): 4.26; kon ([2]; pH 7.4, read-out: ka): 159 M⁻¹ s⁻¹; koff ([2]; pH 7.4, read-out: kd): 0.00867 s⁻¹; minimal effective concentration ([1]; Oryctolagus cuniculus, Erythrocyte, read-out: MIC, minimum concentration to inhibit odorranalectin-mediated erythrocytes hemagglutination): 12500 µM
heparin	> 200	
O.OC[C@H]1O[C@@](CO)(O[C@H]2O[C@H](CO)[C@@H](O)[C@H](O)[C@H]2O)[C@@H](O[C@H]2O[C@H](CO)[C@@H](O)[C@H](O)[C@H]2O)[C@@H]1O [D(+)-melezitose monohydrate]	> 200	
OC1OC[C@@H](O)[C@@H](O)[C@@H]1O (stereo partly drawn) [D(+)-arabinose]	> 200	
O=C(CO)[C@H](O)[C@@H](O)[C@H](O)CO [D-sorbose]	> 200	
O=C(CO)N[C@H]1[C@H]([C@H](O)[C@H](O)CO)OC(O)(C(=O)O)C[C@@H]1O (stereo partly shown) [N-glycolylneuraminc acid]	> 200	
OC[C@H]1O[C@H](O[C@H]2O[C@H](CO)[C@@H](O)[C@H](O)[C@H]2O)[C@H](O)[C@@H](O)[C@@H]1O [D-trehalose]	> 200	
D(+)-maltose monohydrate	> 200	
C[C@@H]1O[C@@H](O)[C@H](O)[C@H](O)[C@H]1O.O [L(+)-rhamnose monohydrate]	> 200	
O=[N+]([O-])c1ccccc1O[C@@H]1O[C@H](CO)[C@H](O)[C@H](O)[C@H]1O [2-nitrophenyl-β-D-galactopyranoside]	> 200	
CC(C)S[C@@H]1O[C@H](CO)[C@H](O)[C@H](O)[C@H]1O [isopropy-β-D-thiogalactoside]	> 200	
O.O.O.O.O.OC[C@H]1O[C@H](OC[C@H]2O[C@H](O[C@]3(CO)O[C@H](CO)[C@@H](O)[C@@H]3O)[C@H](O)[C@@H](O)[C@@H]2O)[C@H](O)[C@@H](O)[C@H]1O [D(+)-raffinose pentahydrate]	> 200	
Transferrin: glycoprotein used as analyte		Binding to immobilized odorranalectin (in words) ([2]; SPR): did not bind; Inhibition of the hemagglutinating activity of odorranalectin by glycoproteins (in words) [1]: All the glycoproteins except transferrin could inhibit
OC[C@H]1OC(O)[C@H](O)[C@@H](O)[C@@H]1O (stereo partly drawn) [D-glucose]	> 200	
CC(=O)N[C@@H]1C(O)O[C@H](CO)[C@@H](O)[C@@H]1O (stereo partly drawn) [N-acetyl-D-mannosamine]	> 200	
O=C(O)[C@H]1OC(O)[C@H](O)[C@@H](O)[C@H]1O (stereo partly drawn) [D(+)-galacturonic acid]	> 200	
OC[C@H]1OC(O)[C@H](O)[C@@H](O)[C@H]1O (stereo partly drawn) [D(+)-galactose]	> 200	
OC[C@H]1O[C@@H](Oc2c[nH]c3ccc(Br)c(Cl)c23)[C@H](O)[C@@H](O)[C@H]1O [5-bromo-4-chloro-3-indoxyl-β-D-galactopyranoside]	> 200	
inulin	> 200	
OC[C@H]1O[C@@H](O[C@H]2[C@H](O)[C@@H](O)[C@H](O)O[C@@H]2CO)[C@H](O)[C@@H](O)[C@@H]1O [D(+)-cellobiose]	> 200	
CC(=O)N[C@@H]1[C@@H](O)[C@@H](O)[C@@H](CO)O[C@@H]1O [N-acetylgalactosamine]	> 200	
